From US20090304827A1, “Combinations of Ingredients Having Synergistic Anti-Inflammatory Effects” (priority 2008, published 2009)

Experiments:
iNOS = settings: cited from earlier work
[1] = tested on: LPS-induced PGE2 production; settings: cited from earlier work
[2] = tested on: LPS-induced NO production; settings: cited from earlier work
[3] = tested on: RAW 264.7 cells activated with bacterial lipopolysaccharide; settings: LPS 50 ng ml^−1; cited from earlier work
[4] = tested on: LPS-induced nitrite (NO) generation on murine macrophage RAW264.7 cells; test: Nitrite assay: LPS-induced nitrite (NO) generation, Griess reaction; assay type: cell-based; settings: either singly or in combination
Text: The term “synergy” refers to the phenomenon in which the combination of two or more discrete agents acting together can cause a greater response than simply the sum of the individual effects of each agent if they were used separately. It is not uncommon to find the presence of two or more chemical constituents or herbs on an organism to be greater than the effect of each chemical constituent or herb individually, or the sum of the individual effects. […]
The nitrite concentration in the medium was measured as an indicator of NO production, a common phenomenon of the inflammation process, according to the Griess reaction. […] One hundred microliters of supernatant was mixed with the same volume of Griess reagent (1% sulfanilamide in 5% phosphoric acid and 0.1% naphthylethylenediamine dihydrocholide in water); absorbance of the mixture at 550 nm was determined with an ELISA plate reader (Dynatech MR-7000; Dynatech Laboratories Inc.).
Various combinations of herbal extracts were investigated for anti-inflammatory effect using nitrite assay. For the study, RAW 264.7 cells were treated with LPS (10 μg/mL) to induce nitrite production, various concentrations and combinations thereof were added, and the nitrite concentration in the medium was measured as an indicator of the inhibition of NO production, a common phenomenon of the inflammation process.

Compound | iNOS enzyme activity (iNOS) | COX-2 gene expression / activation [1] | LPS-induced PGE2 production [1] | LPS-induced NO production [2] | iNOS gene expression / activation [2] | NO generation in activated macrophages (nitrite released into the culture medium) [3] | amount of cytosolic iNOS protein and steady state mRNA levels [3] | anti-inflammatory property (inhibition of NO production) [4]
O=C(O)[C@H]1O[C@@H](Oc2cc3oc(-c4ccccc4)cc(=O)c3c(O)c2O)[C@H](O)[C@@H](O)[C@@H]1O [Baicalin] | did not inhibit | not | not | significantly inhibited | significantly inhibited |  |  | 
COc1c(O)cc2oc(-c3ccccc3)cc(=O)c2c1O [Oroxylin A] |  | blocking | potent inhibitor | potent inhibitor | blocking |  |  | 
Oc1ccc(C=Cc2cc(O)cc(O)c2)cc1 [Resveratrol] |  |  |  |  |  | strongly to inhibit | strongly reduced | 
O=C1O[C@H]([C@@H](O)CO)C(O)=C1O [Vitamin C, L-ascorbate] |  |  |  |  |  |  |  | did not show any noticeable anti-inflammatory property
O=c1cc(-c2ccccc2)oc2cc(O)c(O)c(O)c12 [baicalein] | did not inhibit | not | not | significantly inhibited | significantly inhibited |  |  | 
COc1c(O)cc(O)c2c(=O)cc(-c3ccccc3)oc12 [wogonin] | did not inhibit | inhibited | inhibited | significantly inhibited | significantly inhibited |  |  | 
Tocopherol [vitamin E] |  |  |  |  |  |  |  | did not show any noticeable anti-inflammatory property
